Measured values from US20100204340A1 (priority 2009, published 2010).
≈ marks a conversion by molar mass, not a printed value. Where two headings read alike, the source gives them in different places.

Legend:
[1] = system: Propionibacterium acnes ATCC 11827; assay: Disc diffusion method, zone of inhibition; format: cell-based
Description: Method: Disc diffusion method was done to study Minimum inhibitory concentration (MIC).
Materials • 1. Propionibacterium acnes ATCC 11827 • 2. Physiological saline or Buffered peptone water (BPW). • 3. Reinforced clostridium medium (RCM) Hi-media • 4. Reinforced clostridium agar (RCA) Hi-media • 5. Anaerobic chamber. • 6. Gassing manifold Nitrogen, mixed gases. • 7. Spectrophotometer (600 nm to 625 nm). • 8. Sterile Petri plates (150 mm×90 mm). • 9. Sterile micro pipettes and sterile micro tips. • 10. Sterile disc 6 mm. • 11. Samples tested: Resveratrol (Batch No.: C81173) and 3-Hydroxypsterostilbene (Batch No.: P80096)
The chamber used in the study is of COY LABORATORY USA model 8301-230, 3 ft polymer. The anaerobic chamber consists of a main chamber where in all the operations and incubation of the culture are carried out and a transfer chamber which is meant for taking the materials in and out of the equipment. The main chamber is provided with a heated fan box in order to maintain the required temperature (37° C.) and to circulate the air in the chamber. A catalyst stakpak is fixed to this fan box which consists of palladium catalyst, which is meant to convert oxygen to water molecules by reacting with hydrogen molecules. The anaerobic condition in the chamber for this is maintained by initialization with Nitrogen gas and then by the Mixture gas of N2+H2+CO2 in the proportion 80:10:10. Two gas tank arrangements have been done where only N2 is connected to the transfer chamber.
To carry out the antimicrobial activity of the products against P.acnes the organism was first cultured in the anaerobic conditions. Culture was inoculated into pre-sterile reinforced Clostridium medium (RCM) and incubated at anaerobic condition for 24 hrs. 24 hr to 48 hrs culture at Optical Density @625 nm was determined 0.632 (1:2 dilution) 4.0 Macfarland standards.
30 ml of sterilized RCM was poured into the pre-sterile Petri plates inside the chamber and allowed to solidify. The culture was inoculated (0.2 ml/plate) and spread evenly. After 30 minutes, antibacterial sterile discs (6 mm) were dispensed. […] 10 μl of the prepared sample and controls were dispensed onto the discs. The plates were incubated inside the anaerobic chamber at 37° C. for 24 to 48 hours duration.

[2] = system: Propionibacterium acnes ATCC 11827; assay: Broth dilution method, inhibitory concentration (IC50, IC100); format: cell-based; details: for inhibition at 16.6 µg/mL / inhibition at 41.6 µg/mL / inhibition at 83.3 µg/mL / inhibition at 166 µg/mL / inhibition at 332 µg/mL / IC50 / inhibition at 498 µg/mL: Cutibacterium acnes, ATCC11827
Description: Method: Broth dilution method to evaluate the inhibitory concentration (IC).
Materials • 1. Propionibacterium acnes ATCC: 11827 • 2. Physiological saline or Buffered peptone water (BPW). • 3. Reinforced clostridium medium (RCM) Hi-media • 4. Actinomyces broth (AC broth) Hi-media • 5. Anaerobic chamber. • 6. Gassing manifold Nitrogen, mixed gases. • 7. Spectrophotometer (600 nm to 625 nm). • 8. Sterile tubes • 9. Micro Pipette • 10. Sterile micro tips. • 11. (DMSO) dimethylsulphoxide
The strain Propionibacterium acnes (ATCC 11827) was obtained from ATCC. The inhibitory concentration (IC) of the given sample was determined by broth dilution method according to NCCLS guidelines. The IC50 was defined as that concentration of compound that reduced bacterial growth by 50% as determined spectrophotometrically. IC100 was defined as the lowest concentration of compound that inhibited bacterial growth by 100%. Resveratrol and 3-Hydroxypsterostilbene are water insoluble. Therefore samples were dissolved in DMSO and than added to Actinomyces broth to a final concentration of 0-500 mg/L. Twenty-four hour cultures of P.acnes were adjusted to 1×10^8 cfu/ml using McFarland standards and inoculated to Actinomycetes broth containing a specific concentration of compound. Controls containing just DMSO were also included in the test. Cultures were incubated anaerobically at 37° C. and read spectrophotometrically at 600 nm both at 24 h and 48 h incubation periods. IC50 and IC100 values were calculated from these observations.

[3] = sample 5.0 % (w/v) in DMSO, 10 μl per 6 mm disc
[4] = 16.6 mg/L, 24 h, IC n = n % inhibition of bacterial growth
[5] = 16.6 mg/L, 48 h, IC n = n % inhibition of growth
[6] = 41.6 mg/L, 24 h, IC n = n % inhibition of growth
[7] = 41.6 mg/L, 48 h, IC n = n % inhibition of growth
[8] = 83.3 mg/L, 24 h, IC n = n % inhibition of growth
[9] = 83.3 mg/L, 48 h, IC n = n % inhibition of growth
[10] = 166 mg/L, 24 h, IC n = n % inhibition of growth
[11] = 166 mg/L, 48 h, IC n = n % inhibition of growth
[12] = 332 mg/L, 24 h, IC n = n % inhibition of growth
[13] = 332 mg/L, 48 h, IC n = n % inhibition of growth
[14] = P. acnes ATCC 11827, 24 h, read-out: IC50 24 h
[15] = P. acnes ATCC 11827, 48 h, read-out: IC50 48 h

COc1cc(/C=C/c2ccc(O)c(O)c2)cc(OC)c1 [3-hydroxypterostilbene]
Zone of inhibition ([1]; sample 0.078 % (w/v) in DMSO): No zone
Zone of inhibition ([1]; sample 0.156 % (w/v) in DMSO): No zone
Zone of inhibition ([1]; sample 0.31 % (w/v) in DMSO (3.12 mg/ml), listed as 3-Hydroxy Pterostilbene): 10.0 mm
Zone of inhibition ([1]; sample 0.31 % (w/v) in DMSO (3.12 mg/ml), listed as 3-Hydroxy pterostilbene): 10 mm
Zone of inhibition ([1]; sample 0.625 % (w/v) in DMSO): 13.0 mm
Zone of inhibition ([1]; sample 1.25 % (w/v) in DMSO): 15.0 mm
Zone of inhibition ([1]; sample 2.5 % (w/v) in DMSO): 17.0 mm
Zone of inhibition [1, 3]: 18.0 mm
OD @ 600 nm 24 h ([2]; 16.6 mg/L, 24 h, dilution 1:2): 0.526
OD @ 600 nm 48 h ([2]; 16.6 mg/L, 48 h, dilution 1:2): 0.443
OD @ 600 nm 24 h ([2]; 41.6 mg/L, 24 h, dilution 1:2): 0.352
OD @ 600 nm 48 h ([2]; 41.6 mg/L, 48 h, dilution 1:2): 0.338
OD @ 600 nm 24 h ([2]; 83.3 mg/L, 24 h, dilution As such): 0.047
OD @ 600 nm 48 h ([2]; 83.3 mg/L, 48 h, dilution As such): 0.073
Concentration showing 100% inhibition of Propionibacterium acnes ([2]; 24 hours of incubation): 83.3 mg/mL
Concentration showing 100% inhibition of Propionibacterium acnes ([2]; 48 hours of incubation): 83 mg/mL
inhibition at 16.6 µg/mL [2, 4]: 45%
inhibition at 16.6 µg/mL [2, 5]: 45%
inhibition at 41.6 µg/mL [2, 6]: 62%
inhibition at 41.6 µg/mL [2, 7]: 62%
inhibition at 83.3 µg/mL [2, 8]: 98%
inhibition at 83.3 µg/mL [2, 9]: 98%
inhibition at 166 µg/mL [2, 10]: 100%
inhibition at 166 µg/mL [2, 11]: 100%
inhibition at 332 µg/mL [2, 12]: 100%
inhibition at 332 µg/mL [2, 13]: 100%
IC50 [2, 14]: 33.5 µg/mL (≈ 123 µM)
IC50 [2, 15]: 35.8 µg/mL (≈ 131 µM)
IC100 24 h ([2]; P. acnes ATCC 11827, 24 h): 83.3 mg/L
IC100 48 h ([2]; P. acnes ATCC 11827, 48 h): 83.0 mg/L

Oc1ccc(/C=C/c2cc(O)cc(O)c2)cc1 [Resveratrol, 3,4′,5-trihydroxy-trans-stilbene]
Concentration required to produce a zone of inhibition of 10 mm ([1]; disc diffusion, 0.625% w/v): 6.25 mg/mL
Zone of inhibition ([1]; sample 0.078 % (w/v) in DMSO): No zone
Zone of inhibition ([1]; sample 0.156 % (w/v) in DMSO): No zone
Zone of inhibition ([1]; sample 0.31 % (w/v) in DMSO (3.12 mg/ml)): No zone
Zone of inhibition ([1]; sample 0.625 % (w/v) in DMSO): 10.0 mm
Zone of inhibition ([1]; sample 1.25 % (w/v) in DMSO): 12.0 mm
Zone of inhibition ([1]; sample 2.5 % (w/v) in DMSO): 13.0 mm
Zone of inhibition [1, 3]: 13.0 mm
OD @ 600 nm 24 h ([2]; 16.6 mg/L, 24 h, dilution 1:2): 1.027
(IC) Inhibitory concentration [2, 4]: No inhibition
OD @ 600 nm 48 h ([2]; 16.6 mg/L, 48 h, dilution 1:2): 0.884
(IC) Inhibitory concentration [2, 5]: No inhibition
OD @ 600 nm 24 h ([2]; 41.6 mg/L, 24 h, dilution 1:2): 0.777
OD @ 600 nm 48 h ([2]; 41.6 mg/L, 48 h, dilution 1:2): 0.593
OD @ 600 nm 24 h ([2]; 83.3 mg/L, 24 h, dilution 1:2): 0.423
OD @ 600 nm 48 h ([2]; 83.3 mg/L, 48 h, dilution 1:2): 0.573
OD @ 600 nm 24 h ([2]; 166 mg/L, 24 h, dilution 1:2): 0.232
OD @ 600 nm 48 h ([2]; 166 mg/L, 48 h, dilution 1:2): 0.268
OD @ 600 nm 24 h ([2]; 332 mg/L, 24 h, dilution As such): 0.00
OD @ 600 nm 48 h ([2]; 332 mg/L, 48 h, dilution As such): 0.11
OD @ 600 nm 48 h ([2]; 498 mg/L, 48 h, dilution As such): 0.00
Concentration showing 100% inhibition of Propionibacterium acnes ([2]; 24 hours of incubation): 332 mg/mL
Concentration showing 100% inhibition of Propionibacterium acnes ([2]; 48 hours of incubation): 498 mg/mL
inhibition at 41.6 µg/mL [2, 6]: 17%
inhibition at 41.6 µg/mL [2, 7]: 27%
inhibition at 83.3 µg/mL [2, 8]: 55%
inhibition at 83.3 µg/mL [2, 9]: 30%
inhibition at 166 µg/mL [2, 10]: 75%
inhibition at 166 µg/mL [2, 11]: 68%
inhibition at 332 µg/mL [2, 12]: 100%
inhibition at 332 µg/mL [2, 13]: 85%
inhibition at 498 µg/mL ([2]; 498 mg/L, 24 h, IC n = n % inhibition of growth): 100%
inhibition at 498 µg/mL ([2]; 498 mg/L, 48 h, IC n = n % inhibition of growth): 100%
IC50 [2, 14]: 83 µg/mL (≈ 364 µM)
IC50 [2, 15]: 120 µg/mL (≈ 526 µM)
IC100 24 h ([2]; P. acnes ATCC 11827, 24 h): 332.0 mg/L
IC100 48 h ([2]; P. acnes ATCC 11827, 48 h): 498 mg/L
